EC50 data for twelve compounds are collected here from US10913727B2, “Modulators of the integrated stress pathway” (Calico Life Sciences LLC, priority 2016, dated 2021).

Molecules are shown by their SMILES.

In this assay the test system is HEK293T cells carrying the ATF4 luciferase reporter. The assay can be described thus: ATF4-Luc assay, in vitro model of Vanishing Cell White Matter Disease (VWMD). It counts as cell-based. The note with it: Homo sapiens, HEK-293T, 1 μg/mL tunicamycin, 7 hours, One Glo luminescence. The essentials:
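Compound at 200 nM and tunicamycin at 1 μg/mL were given together for 7 h to HEK293T cells stably transduced with an ATF4 5′-UTR-driven firefly luciferase reporter. Read-out by luminescence, reported as EC50.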
Regarding `O=C(COc1ccc(Cl)c(F)c1)NC12CC(NC(=O)c3ccc4ncccc4n3)(C1)C2` [Compound 658, N-{3-[2-(4-chloro-3-fluorophenoxy)acetamido]bicyclo[1.1.1]pentan-1-yl}-1,5-naphthyridine-2-carboxamide], the EC50 was in the range of 50 to 250 nM.

Regarding `O=C(COc1ccc(Cl)c(F)c1)NC12CC(NC(=O)c3ccc4cnccc4n3)(C1)C2` [Compound 659, N-{3-[2-(4-chloro-3-fluorophenoxy)acetamido]bicyclo[1.1.1]pentan-1-yl}-1,6-naphthyridine-2-carboxamide], the EC50 fell in the range of 50 to 250 nM.

As to `O=C(COc1ccc(Cl)c(F)c1)NC12CC(NC(=O)c3cc4ccccc4cn3)(C1)C2` [Compound 660, N-{3-[2-(4-chloro-3-fluorophenoxy)acetamido]bicyclo[1.1.1]pentan-1-yl}isoquinoline-3-carboxamide], the 50% effective concentration (EC50) was in the range of 250 to 1000 nM.

`O=C(COc1ccc(Cl)c(F)c1)NC12CC(NS(=O)(=O)c3ccc(Cl)cn3)(C1)C2` [Compound 661, 2-(4-chloro-3-fluorophenoxy)-N-{3-[(5-chloropyridine-2-sulfonyl)amino]bicyclo[1.1.1]pentan-1-yl}acetamide]: the EC50 was over 2000 nM.

`Cc1ccc(S(=O)(=O)NC23CC(NC(=O)COc4ccc(Cl)c(F)c4)(C2)C3)cc1` [Compound 662, 2-(4-chloro-3-fluorophenoxy)-N-{3-[(4-methylbenzene-1-sulfonyl)amino]bicyclo[1.1.1]pentan-1-yl}acetamide]: the EC50 was over 2000 nM.

`O=C(COc1ccc(Cl)c(F)c1)NC12CCC(NS(=O)(=O)c3ccc(C(F)(F)F)cc3)(CC1)[C@@H](O)C2` [Compound 663, 2-(4-chloro-3-fluorophenoxy)-N-[(3S)-3-hydroxy-4-{[4-(trifluoromethyl)benzene-1-sulfonyl]amino}bicyclo[2.2.2]octan-1-yl]acetamide]: the EC50 was in the range of 50 to 250 nM.

In the case of `Cc1cc(C(=O)NC23CC(NC(=O)COc4ccc(Cl)c(F)c4)(C2)C3)ncc1Cl` [Compound 664, 5-chloro-N-{3-[2-(4-chloro-3-fluorophenoxy)acetamido]bicyclo[1.1.1]pentan-1-yl}-4-methylpyridine-2-carboxamide], the EC50 is 250 to 1000 nM.

`O=C(COc1ccc(Cl)c(F)c1)NC12CCC(NC(=O)c3cc(C(F)F)cs3)(CC1)C[C@@H]2O` [Compound 665, N-{(3S)-4-[2-(4-chloro-3-fluorophenoxy)acetamido]-3-hydroxybicyclo[2.2.2]octan-1-yl}-4-(difluoromethyl)thiophene-2-carboxamide]: the EC50 was under 50 nM.

Regarding `Cc1cnc(C(=O)NC23CCC(NC(=O)COc4ccc(Cl)c(F)c4)(CC2)[C@@H](O)C3)cn1` [Compound 666, N-{(3S)-4-[2-(4-chloro-3-fluorophenoxy)acetamido]-3-hydroxybicyclo[2.2.2]octan-1-yl}-5-methylpyrazine-2-carboxamide], the EC50 was under 50 nM.

As to `O=C(COc1ccc(Cl)c(F)c1)NC12CCC(NC(=O)c3cnc4ccccc4n3)(CC1)C[C@@H]2O` [Compound 667, N-{(3S)-4-[2-(4-chloro-3-fluorophenoxy)acetamido]-3-hydroxybicyclo[2.2.2]octan-1-yl}quinoxaline-2-carboxamide], the EC50 is under 50 nM.

As for `CCc1cc(C(=O)NC23CCC(NC(=O)COc4ccc(Cl)c(F)c4)(CC2)[C@@H](O)C3)no1` [Compound 668, N-{(3S)-4-[2-(4-chloro-3-fluorophenoxy)acetamido]-3-hydroxybicyclo[2.2.2]octan-1-yl}-5-ethyl-1,2-oxazole-3-carboxamide], the EC50 is under 50 nM.

For `O=C(COc1ccc(Cl)c(F)c1)NC12CC(NC(=O)c3ccc4cccnc4n3)(C1)C2` [Compound 669, N-{3-[2-(4-chloro-3-fluorophenoxy)acetamido]bicyclo[1.1.1]pentan-1-yl}-1,8-naphthyridine-2-carboxamide], the EC50 was 250 to 1000 nM.

By EC50 is commonly meant the concentration giving half of the maximal effect.
